Assay [1] has as its target T1, Protein skinhead-1 (Caenorhabditis elegans, UniProt P34707).
T1 sequence (P34707 whole entry): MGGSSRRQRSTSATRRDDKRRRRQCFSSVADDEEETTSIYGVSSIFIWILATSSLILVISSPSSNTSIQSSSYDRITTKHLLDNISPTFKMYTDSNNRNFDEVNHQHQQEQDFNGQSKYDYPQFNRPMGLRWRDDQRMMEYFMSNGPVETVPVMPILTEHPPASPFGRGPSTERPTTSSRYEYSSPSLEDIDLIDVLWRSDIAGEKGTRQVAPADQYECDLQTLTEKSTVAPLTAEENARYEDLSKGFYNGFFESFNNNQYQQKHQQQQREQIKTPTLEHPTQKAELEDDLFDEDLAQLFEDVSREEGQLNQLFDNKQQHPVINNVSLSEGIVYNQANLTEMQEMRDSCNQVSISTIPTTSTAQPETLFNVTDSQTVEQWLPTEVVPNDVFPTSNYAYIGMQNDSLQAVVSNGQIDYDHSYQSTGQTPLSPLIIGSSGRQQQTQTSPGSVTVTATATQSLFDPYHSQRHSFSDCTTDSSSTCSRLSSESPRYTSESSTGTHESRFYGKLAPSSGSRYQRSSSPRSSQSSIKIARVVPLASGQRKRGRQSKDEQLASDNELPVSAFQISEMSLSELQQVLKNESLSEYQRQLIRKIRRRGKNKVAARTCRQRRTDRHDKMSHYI
Format: functional.

Assay [2] concerns the target Glyceraldehyde-3-phosphate dehydrogenase (Homo sapiens, UniProt P04406).
Assay [3] deals with T2, Corticotropin-releasing factor receptor 2/Corticotropin-releasing factor-binding protein (Homo sapiens, UniProt P24387+Q13324).
T2 sequence (Q13324 whole entry): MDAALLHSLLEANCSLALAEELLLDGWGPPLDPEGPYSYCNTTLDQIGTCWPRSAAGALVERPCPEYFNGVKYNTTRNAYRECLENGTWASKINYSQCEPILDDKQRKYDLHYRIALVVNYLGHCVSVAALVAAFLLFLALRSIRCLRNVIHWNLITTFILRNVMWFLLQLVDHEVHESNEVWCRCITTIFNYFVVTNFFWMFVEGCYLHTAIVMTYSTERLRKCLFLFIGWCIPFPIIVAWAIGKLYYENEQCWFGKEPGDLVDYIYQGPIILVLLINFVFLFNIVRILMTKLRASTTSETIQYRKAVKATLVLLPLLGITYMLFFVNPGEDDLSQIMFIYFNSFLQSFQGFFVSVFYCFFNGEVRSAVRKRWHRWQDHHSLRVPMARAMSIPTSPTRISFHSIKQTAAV
T2 sequence (P24387 whole entry): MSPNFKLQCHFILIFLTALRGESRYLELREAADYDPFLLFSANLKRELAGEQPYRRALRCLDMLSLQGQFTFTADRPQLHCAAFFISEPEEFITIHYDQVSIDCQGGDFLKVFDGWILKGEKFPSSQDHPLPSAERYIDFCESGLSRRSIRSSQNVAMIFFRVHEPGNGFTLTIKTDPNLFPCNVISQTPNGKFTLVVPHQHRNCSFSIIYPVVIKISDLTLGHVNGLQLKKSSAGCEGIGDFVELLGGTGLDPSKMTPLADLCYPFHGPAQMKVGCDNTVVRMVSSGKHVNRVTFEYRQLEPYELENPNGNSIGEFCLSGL
The assay can be described thus: activators of CRF receptor 2 with binding protein – uHTS hits, confirmation (AID 602473). Format: functional. The note with it: read-out: EC50_Mean.

For assay [4], the target named is T3, Alkaline phosphatase, tissue-nonspecific isozyme (Homo sapiens, UniProt P05186).
T3 sequence (P05186 whole entry): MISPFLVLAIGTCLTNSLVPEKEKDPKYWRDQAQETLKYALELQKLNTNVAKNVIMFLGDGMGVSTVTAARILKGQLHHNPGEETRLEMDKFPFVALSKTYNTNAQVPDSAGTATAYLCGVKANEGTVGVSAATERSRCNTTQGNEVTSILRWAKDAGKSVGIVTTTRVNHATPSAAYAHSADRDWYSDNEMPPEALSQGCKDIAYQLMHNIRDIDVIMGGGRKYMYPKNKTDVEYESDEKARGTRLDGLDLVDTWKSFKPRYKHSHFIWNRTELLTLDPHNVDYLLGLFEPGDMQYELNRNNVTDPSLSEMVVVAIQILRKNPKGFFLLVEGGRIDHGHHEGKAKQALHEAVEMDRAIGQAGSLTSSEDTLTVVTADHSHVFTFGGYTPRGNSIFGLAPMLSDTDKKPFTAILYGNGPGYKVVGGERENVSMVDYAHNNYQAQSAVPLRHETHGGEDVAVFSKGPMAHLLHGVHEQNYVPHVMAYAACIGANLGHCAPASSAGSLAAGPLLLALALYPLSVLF
Nature of the assay: potency against alkaline phosphatase TNAP – biochemical, luminescent, dose response, SAR follow-up (AID 1056).

The target in assay [5] is T2, Corticotropin-releasing factor receptor 2/Corticotropin-releasing factor-binding protein. Nature of the assay: Dose Response confirmation of uHTS hits for small molecule antagonists of the CRF-binding protein and CRF-R2 receptor complex. In kind it is functional. The note with it: read-out: IC50_Mean.
Assay [6] deals with T4, Short transient receptor potential channel 4 (Mus musculus, UniProt Q9QUQ5).
T4 sequence (Q9QUQ5 whole entry): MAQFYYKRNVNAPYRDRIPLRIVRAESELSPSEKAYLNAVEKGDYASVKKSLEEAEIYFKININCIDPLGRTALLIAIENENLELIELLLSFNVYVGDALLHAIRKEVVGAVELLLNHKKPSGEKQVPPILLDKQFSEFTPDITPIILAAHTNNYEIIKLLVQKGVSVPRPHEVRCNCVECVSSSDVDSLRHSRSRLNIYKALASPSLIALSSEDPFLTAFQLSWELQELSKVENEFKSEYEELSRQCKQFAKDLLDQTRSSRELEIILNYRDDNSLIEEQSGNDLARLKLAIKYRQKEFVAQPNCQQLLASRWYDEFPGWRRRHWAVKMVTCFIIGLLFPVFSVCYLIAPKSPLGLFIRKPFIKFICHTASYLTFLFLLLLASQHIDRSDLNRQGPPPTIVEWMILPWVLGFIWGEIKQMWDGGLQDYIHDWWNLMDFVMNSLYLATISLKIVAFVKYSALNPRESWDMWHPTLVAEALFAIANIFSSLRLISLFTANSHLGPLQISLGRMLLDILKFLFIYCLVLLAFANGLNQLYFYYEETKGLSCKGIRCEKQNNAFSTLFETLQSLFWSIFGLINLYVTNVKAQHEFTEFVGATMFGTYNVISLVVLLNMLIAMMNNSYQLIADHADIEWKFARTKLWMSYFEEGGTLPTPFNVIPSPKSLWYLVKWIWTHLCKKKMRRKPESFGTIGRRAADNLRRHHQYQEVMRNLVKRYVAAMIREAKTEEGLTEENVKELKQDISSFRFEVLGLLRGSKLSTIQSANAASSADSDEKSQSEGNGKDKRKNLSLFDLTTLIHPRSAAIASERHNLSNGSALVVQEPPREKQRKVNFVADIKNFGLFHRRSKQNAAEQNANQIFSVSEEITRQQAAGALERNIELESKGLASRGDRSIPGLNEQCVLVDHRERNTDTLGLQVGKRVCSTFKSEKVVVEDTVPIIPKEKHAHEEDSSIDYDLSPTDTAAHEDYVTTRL
Nature of the assay: block of DAMGO-driven TRPC4 calcium entry – cell-based, HEK293 TRPC4/mu-opioid, Fluo-4 calcium, dose response (AID 434942).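 Also: potency of inhibitors blocking the TRPC4 calcium response.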 Format: functional.

For assay [7], the target named is T5, Coagulation factor XII (Homo sapiens, UniProt P00748).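 Also: activated factor XIIa alpha cleaving a fluorogenic AMC peptide substrate; inhibitor potency from loss of enzyme activity.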
T5 sequence (P00748 whole entry): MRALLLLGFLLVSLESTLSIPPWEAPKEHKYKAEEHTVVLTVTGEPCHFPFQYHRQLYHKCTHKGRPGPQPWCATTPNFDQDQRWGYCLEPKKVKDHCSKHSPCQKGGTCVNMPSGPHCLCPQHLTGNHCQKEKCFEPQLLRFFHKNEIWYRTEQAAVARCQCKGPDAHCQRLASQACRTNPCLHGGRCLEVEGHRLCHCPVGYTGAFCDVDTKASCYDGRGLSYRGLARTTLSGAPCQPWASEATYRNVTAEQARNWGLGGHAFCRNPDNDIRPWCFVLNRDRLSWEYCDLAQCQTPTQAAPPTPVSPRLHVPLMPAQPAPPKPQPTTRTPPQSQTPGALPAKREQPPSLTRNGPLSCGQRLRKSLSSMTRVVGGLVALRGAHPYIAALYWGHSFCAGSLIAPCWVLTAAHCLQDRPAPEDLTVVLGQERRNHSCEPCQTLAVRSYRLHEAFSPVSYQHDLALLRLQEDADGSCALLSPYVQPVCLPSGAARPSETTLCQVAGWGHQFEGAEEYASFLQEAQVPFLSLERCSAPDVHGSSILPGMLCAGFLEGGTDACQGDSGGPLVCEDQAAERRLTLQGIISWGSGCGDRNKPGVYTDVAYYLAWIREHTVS
Format: functional.

A short description of assay [8]: off-target signal loss in HeLa-CEM21 co-culture – HeLa F-luc CTL cells, cherry-picked, counter-screen for HIV-1 Env fusion inhibitor project, dose response (AID 652040).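 Also: potency for signal decrease marking cytotoxic or nonspecific inhibition.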 In kind it is functional, cell-based.
The nature of assay [9]: HIV-1 AD8 envelope cell-cell fusion blockers – cherry-pick, dose response (AID 652062).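 Also: luciferase signal from cell-cell fusion driven by HIV-1 clade B AD8 Env; potency is for inhibitors of fusion seen as a drop in luminescence.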 Format: functional, cell-based.
Assay [10] is described as follows: blockers of HIV-1 envelope-mediated cell-cell fusion – cherry-pick, dose response (AID 652057). In kind it is functional, cell-based.
Assay [11] deals with Cytochrome P450 3A4 (Homo sapiens, UniProt P08684).
Chain of Cytochrome P450 3A4 (P08684 whole entry): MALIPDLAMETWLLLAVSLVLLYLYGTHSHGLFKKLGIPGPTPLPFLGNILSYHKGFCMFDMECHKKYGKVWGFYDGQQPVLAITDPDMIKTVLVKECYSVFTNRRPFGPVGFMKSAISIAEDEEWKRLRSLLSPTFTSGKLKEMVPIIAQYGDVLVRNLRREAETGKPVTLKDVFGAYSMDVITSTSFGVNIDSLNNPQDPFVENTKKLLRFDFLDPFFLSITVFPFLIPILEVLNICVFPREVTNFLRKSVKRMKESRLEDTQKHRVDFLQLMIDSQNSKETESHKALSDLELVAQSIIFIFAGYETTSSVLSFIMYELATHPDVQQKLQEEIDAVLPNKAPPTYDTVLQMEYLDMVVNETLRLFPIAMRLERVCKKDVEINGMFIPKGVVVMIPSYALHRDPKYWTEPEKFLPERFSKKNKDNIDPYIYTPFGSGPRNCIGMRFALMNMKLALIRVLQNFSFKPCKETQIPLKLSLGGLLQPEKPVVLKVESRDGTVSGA
A short description of assay [12]: intracellular Trypanosoma cruzi inhibitors in host cells – cell-based, plate reader, cherry-pick samples, set 3, dose response (AID 651818).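 Also: compounds incubated with infected cells for about four days.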 In kind it is functional.
Assay [13] addresses Paired box protein Pax-8 (Homo sapiens, UniProt Q06710). The assay can be described thus: PAX8 transcriptional activity inhibition in RMG-I – RMG-I cells, luciferase, cherry-pick, dose response (AID 687027).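 Also: luciferase reporter driven by Pax8 target thyroperoxidase promoter measured by SteadyGlo luminescence.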 Format: functional, cell-based.

25 molecules from ChEMBL document CHEMBL1201862, “PubChem BioAssay data set” (2004) can be followed below.

Calls of active or inactive are those of the source.

Chain of Paired box protein Pax-8 (Q06710 whole entry): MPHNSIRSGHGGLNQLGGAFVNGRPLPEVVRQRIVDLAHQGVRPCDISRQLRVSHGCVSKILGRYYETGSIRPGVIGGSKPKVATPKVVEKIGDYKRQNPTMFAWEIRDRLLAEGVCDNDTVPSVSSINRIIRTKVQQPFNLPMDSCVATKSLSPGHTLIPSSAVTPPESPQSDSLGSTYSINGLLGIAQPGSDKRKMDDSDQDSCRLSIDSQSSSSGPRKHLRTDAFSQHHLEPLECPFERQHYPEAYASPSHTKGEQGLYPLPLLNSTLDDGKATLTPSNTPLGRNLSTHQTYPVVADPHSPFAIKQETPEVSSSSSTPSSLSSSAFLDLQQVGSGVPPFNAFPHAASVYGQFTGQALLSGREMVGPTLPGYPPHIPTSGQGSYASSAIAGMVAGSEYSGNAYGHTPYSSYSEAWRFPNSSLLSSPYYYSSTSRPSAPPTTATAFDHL
Chain of Glyceraldehyde-3-phosphate dehydrogenase (P04406 whole entry): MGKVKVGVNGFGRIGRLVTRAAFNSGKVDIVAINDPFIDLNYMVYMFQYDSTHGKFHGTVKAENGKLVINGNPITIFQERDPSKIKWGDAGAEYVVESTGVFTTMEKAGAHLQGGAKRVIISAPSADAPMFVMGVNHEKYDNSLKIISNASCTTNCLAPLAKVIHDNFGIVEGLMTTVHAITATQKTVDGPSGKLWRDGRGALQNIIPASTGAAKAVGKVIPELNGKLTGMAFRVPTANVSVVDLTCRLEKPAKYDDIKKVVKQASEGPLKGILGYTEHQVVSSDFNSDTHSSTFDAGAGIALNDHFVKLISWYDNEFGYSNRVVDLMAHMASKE

For the molecule `Clc1ccc(CSc2ccc(-c3cccnc3)nn2)cc1`, the IC50 in assay [1] is 83.9 µM (inactive).
Consider `CCCSc1nnc(NC(C)=O)[nH]1`, for which the IC50 in assay [2] is > 10 µM (inconclusive); in assay [4], 0.449 µM (active); in [5], > 47.1 µM (inactive). The EC50 in assay [3] was > 53 µM (inactive).
Regarding `Cc1ccc(-n2cccn2)c(CN2CCCC(C(=O)c3ccc4c(c3)OCO4)C2)c1` (stereo unspecified), in assay [6], the EC50 was 7.5 µM (active).
Regarding `CCc1nnc(NC(=O)CCC(=O)N2CCN(CCOc3ccc(C)cc3)CC2)s1`, the IC50 in assay [7] was > 50 µM (inactive).
Take `COc1ccc(Cl)cc1N=C(S)NNC(=O)C1(C)CC1(Cl)Cl` (stereo unspecified): in [7], the IC50 is > 50 µM (inactive).
Turning to `COc1cccc(C2=NN(C(=O)c3ccco3)C(c3ccco3)C2)c1` (stereo unspecified), the EC50 in assay [6] is 1.88 µM (active).
`CCCn1c(=S)[nH]c2cc(C(=O)N3CCCC(C(=O)OCC)C3)ccc2c1=O` (stereo unspecified): the AC50 (usually the concentration giving half of the maximal activity seen) is > 70 µM (inactive) in [8] and 23.2 µM (active) in [9].
As to `O=C1c2cccnc2C(Nc2ccc(S(=O)(=O)N3CCCCC3)cc2)N1Cc1ccccc1` (stereo unspecified), the results for the AC50 in assay [10] and in assay [8] were 7.23 µM (active) and 58.9 µM (active), respectively.
`O=C(COC(=O)C1CC1)Nc1nc(-c2ccc(F)c(F)c2)cs1`: in assay [6], the EC50 is 2.99 µM (active).
For the molecule `CCOCCCn1cnc2c(c1=O)c1nc3ccccc3nc1n2-c1ccccc1`, the half-maximal activity concentration (AC50) in assay [11] was 20 µM (inconclusive). For the same molecule, the IC50 in assay [7] was > 50 µM (inactive).
On to `COC(=O)c1cccc(NC(=O)CSc2nnc[nH]2)c1`, for which, in [7], the IC50 was > 50 µM (inactive).
On the same count and under the same terms, the result for `COc1ccc(CN(Cc2ccc(OC)cc2)C(=O)c2cccs2)cc1` reads > 50 µM (inactive).
Turning to `Cc1nc2ccccc2n1CCOc1ccc(F)cc1`, the EC50 in assay [6] is 0.376 µM (active).
In the case of `CCCC(=O)NNC(=O)c1ccoc1C`, the IC50 in [7] was > 50 µM (inactive).
Take `C[C@@H]1CCCCO[C@H](CN(C)Cc2ccc(C(F)(F)F)cc2)[C@@H](C)CN([C@H](C)CO)C(=O)c2cc(NC(=O)Nc3ccccc3)ccc2O1`: the AC50 in assay [12] is 4.7 µM (active).
The same measure, in the same setting: to `C[C@H]1CN([C@@H](C)CO)C(=O)c2cc(NC(=O)Nc3cccc4ccccc34)ccc2O[C@H]1CN(C)Cc1ccc(Cl)c(Cl)c1` belongs 5.7 µM (active).
On the same count and under the same terms, to `C[C@@H]1CCCCO[C@@H](CN(C)Cc2ccc(C(F)(F)F)cc2)[C@@H](C)CN([C@H](C)CO)C(=O)c2cc(NC(=O)Nc3ccc(F)cc3)ccc2O1` belongs 6.87 µM (active); to `C[C@@H]1CN([C@H](C)CO)C(=O)Cc2cc(NC(=O)Nc3ccc(F)cc3)ccc2O[C@@H]1CN(C)Cc1ccc(C(=O)Nc2ccccc2N)cc1`, 2.04 µM (active); to `COc1ccc(S(=O)(=O)Nc2ccc3c(c2)C(=O)N([C@@H](C)CO)C[C@H](C)[C@H](CN(C)Cc2ccc(Oc4ccccc4)cc2)O3)cc1`, 1.94 µM (active).
In the case of `C[C@@H]1CCCCO[C@@H](CN(C)C(=O)NC2CCCCC2)[C@@H](C)CN([C@H](C)CO)C(=O)c2cc(NC(=O)Nc3ccc(C(F)(F)F)cc3)ccc2O1`, the AC50 in assay [12] is 4.12 µM (active).
The same measure, in the same setting: to `C[C@@H]1CN([C@@H](C)CO)C(=O)c2cccc(NC(=O)c3nc4ccccc4s3)c2O[C@H]1CN(C)Cc1ccc(-c2ccccc2)cc1` belongs 3.59 µM (active).
In the case of `Cc1cccc(S(=O)(=O)N2CC[C@@H]3[C@H](CO)Nc4ccc(C5=CCCCC5)cc4[C@@H]32)c1`, the AC50 in assay [13] is 10.9 µM (active).
On the same count and under the same terms, to `O=C(C[C@@H]1CC[C@@H]2[C@H](COC[C@H](O)CN2S(=O)(=O)c2cccc(Cl)c2)O1)Nc1ccc(-c2ccccc2)cc1` belongs 9.87 µM (active); to `C[C@@H]1CCCCO[C@H](CN(C)Cc2ccncc2)[C@H](C)CN([C@@H](C)CO)C(=O)c2cc(NC(=O)Nc3ccc(C(F)(F)F)cc3)ccc2O1`, 13.6 µM (active).
`COc1cccc2cc(C(N)=O)/c(=N\NC(=O)c3ccccc3)oc12`: the EC50 in assay [6] is 0.188 µM (active).
